Here are results for 23 molecules from patent US9233965B2, “3,4-dihydropyrrolo[1,2-A]pyrazine-2,8(1H)-dicarboxamide derivatives, preparation thereof and therapeutic use thereof for diseases involving casein kinase 1 epsilon and/or casein kinase 1 delta” (SANOFI, priority 2010, dated 2016).

The target of the assay is casein kinase 1 epsilon (CK1 epsilon) (Homo sapiens (Human), UniProt P49674). Put plainly: Test A: inhibitory activity on CK1 epsilon, casein phosphorylation assay on ATP-33P filter plate. The conditions noted are these: IC50 values or IC50 ranges (result of several experiments), ATP 10 μM final. It counts as biochemical. The procedure: The capacity of the compounds of the invention to inhibit the phosphorylation of casein by casein kinase 1 epsilon and/or delta may be evaluated according to the procedures described in document US 2005/0 131 012.
Chain of casein kinase 1 epsilon (CK1 epsilon) (P49674 whole entry): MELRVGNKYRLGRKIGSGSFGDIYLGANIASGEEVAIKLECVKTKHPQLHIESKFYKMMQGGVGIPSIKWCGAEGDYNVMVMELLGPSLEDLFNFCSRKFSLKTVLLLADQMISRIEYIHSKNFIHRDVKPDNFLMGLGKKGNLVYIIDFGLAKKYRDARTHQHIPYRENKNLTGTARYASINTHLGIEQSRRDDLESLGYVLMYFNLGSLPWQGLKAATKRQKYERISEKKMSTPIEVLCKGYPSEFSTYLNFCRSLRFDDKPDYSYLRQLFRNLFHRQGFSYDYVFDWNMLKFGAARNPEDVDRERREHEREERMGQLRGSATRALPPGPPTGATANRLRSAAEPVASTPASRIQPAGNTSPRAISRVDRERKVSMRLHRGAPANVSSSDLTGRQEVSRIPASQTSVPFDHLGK
Test A: Inhibitory Activity on CK1 Epsilon Measured by Assay on an ATP-^33P Filter Plate
The effect of the compounds on inhibition of the phosphorylation of casein by the enzyme casein kinase 1 epsilon (CK1 epsilon) is measured, using a casein assay via filtration of ATP-^33P in vitro.
Casein kinase 1 epsilon (0.58 mg/ml) is obtained via fermentation and purification processes performed according to methods that are well known to those skilled in the art, or may also be obtained from Invitrogen Corporation™ (human CK1 epsilon).
The compounds are tested at five different concentrations so as to generate IC50 values, i.e. the concentration at which a compound is capable of inhibiting the enzymatic activity by 50%, or alternatively the percentage of inhibition at a concentration of 10 micromolar.
“U”-bottomed Falcon plates are prepared by placing 5 μL of solutions of the compounds according to the invention at concentrations of 10, 1, 0.1, 0.01 or 0.001 μM in different wells. The solutions of the compounds according to the invention at these various concentrations are prepared by diluting in a test buffer (Tris 50 mM pH 7.5, MgCl2 […], DTT 2 mM and EGTA 1 mM) a stock solution in DMSO at a concentration of 10 mM. Next, 5 μL of dephosphorylated casein are added to a final concentration of 0.2 μg/μL, 20 μL of CK1 epsilon to a final concentration of 3 ng/μL, and 20 μL of ATP-^33P to a final concentration of 0.02 μCi/μL mixed with cold ATP (10 μM final—approximately 2×10^6 CPM per well). The final total test volume per well is equal to 50 μL.
The “U”-bottomed Falcon® test plate mentioned above is vortexed, and then incubated at room temperature for 2 hours. After 2 hours the reaction is stopped by adding an ice-cold solution of 65 μL of cold ATP (2 mM) prepared in test buffer.
100 μL of the reaction mixture are then transferred from the “U”-bottomed Falcon® plate into Millipore® MAPH filter plates, preimpregnated with 25 μL of ice-cold 100% TCA.
The Millipore MAPH filter plates are agitated gently and are left to stand at room temperature for at least 30 minutes to precipitate the proteins.
After 30 minutes, the filter plates are sequentially washed and filtered with 2×150 μL of 20% TCA, 2×150 μL of 10% TCA and 2×150 μL of 5% TCA (6 washes in total per plate/900 μL per well).
The plates are left to dry overnight at room temperature. Next, 40 μL of Microscint-20 Packard® scintillation liquid are added per well and the plates are closed in a leaktight manner. The radiation emitted by each well is then measured for 2 minutes in a TopCount NXT Packard® scintillation counter, in which the values of CPM/well are measured.
The percentage inhibition of the capacity of the enzyme to phosphorylate the substrate (casein) is determined for each concentration of test compound. These inhibition data expressed as percentages are used to calculate the IC50 value for each compound compared with the controls.
The kinetic studies determined the KM value for ATP as being 21 μM in this test system.
Table 2 below gives the IC50 values or the IC50 inhibition ranges (result of several experiments) for the phosphorylation of Casein Kinase 1 Epsilon for a number of compounds according to the invention.

One may read the IC50 as the concentration that gives 50% inhibition. Lower therefore signals greater potency in that assay.

Consider `CC(C)(C)NC(=O)N1CCn2c(c(C(N)=O)c(-c3ccc(OC(F)(F)F)cc3)c2C2CC2)C1` [Compound 44, N^2-tert-butyl-6-cyclo-propyl-7-[4-(trifluoromethoxy)phenyl]-3,4-dihydropyrrolo[1,2-a]pyrazine-2,8(1H)-dicarboxamide], for which the half-maximal inhibitory concentration (IC50) came to 33 nM.
The molecule `CC(C)CNC(=O)N1CCn2c(c(C(N)=O)c(-c3ccccc3)c2C2CC2)C1` [Compound 9, 6-cyclo-propyl-7-phenyl-N^2-(iso-butyl)-3,4-dihydropyrrolo[1,2-a]pyrazine-2,8(1H)-dicarboxamide] had an IC50 of 49 nM.
Turning to `CSc1ccc(-c2c(C(N)=O)c3n(c2C2CC2)CCN(C(=O)NC(C)(C)C)C3)cc1` [Compound 48, N^2-tert-butyl-6-cyclo-propyl-7-[4-(methylsulfanyl)phenyl]-3,4-dihydropyrrolo[1,2-a]pyrazine-2,8(1H)-dicarboxamide], the concentration for half-maximal inhibition (IC50) lay within 1 to 2 nM.
Regarding `CC(C)(C)NC(=O)N1CCn2c(c(C(N)=O)c(-c3ccc(OCc4ccc(F)cc4)cc3)c2C2CC2)C1` [Compound 41, N^2-tert-butyl-6-cyclo-propyl-7-{4-[(4-fluorobenzyl)oxy]phenyl}-3,4-dihydropyrrolo[1,2-a]pyrazine-2,8(1H)-dicarboxamide], the 50% inhibitory concentration (IC50) stood at 42 nM.
The same measure for `CC(C)(C)ON=C1CCC(NC(=O)N2CCn3c(Cl)c(-c4cccc(F)c4)c(C(N)=O)c3C2)CC1` (stereo not drawn) [Compound 87, trans-6-chloro-7-(3-fluorophenyl)-N^2-(4-tert-butyloxyimino-cyclohexyl)-3,4-dihydropyrrolo[1,2-a]pyrazine-2,8(1H)-dicarboxamide]: below 1 nM; for `CC(C)(C)NC(=O)N1CCn2c(c(C(N)=O)c(-c3ccccc3F)c2C2CC2)C1` [Compound 45, N^2-tert-butyl-6-cyclo-propyl-7-(2-fluorophenyl)-3,4-dihydropyrrolo[1,2-a]pyrazine-2,8(1H)-dicarboxamide]: 12 nM; for `CC(C)(C)NC(=O)N1CCn2c(c(C(N)=O)c(-c3cccc(-n4cccn4)c3)c2C2CC2)C1` [Compound 27, N^2-tert-butyl-6-cyclo-propyl-7-[3-(1H-pyrazol-1-yl)phenyl]-3,4-dihydropyrrolo[1,2-a]pyrazine-2,8(1H)-dicarboxamide]: 23 nM.
In turn, `CC(C)(C)NC(=O)N1CCn2c(c(C(N)=O)c(-c3ccc(N4CCOCC4)cc3)c2C2CC2)C1` [Compound 30, N^2-tert-butyl-6-cyclo-propyl-7-[4-(morpholin-4-yl)phenyl]-3,4-dihydropyrrolo[1,2-a]pyrazine-2,8(1H)-dicarboxamide] showed an IC50 of 331 nM. This IC50 lies about 14-fold higher than the previous one.
The same measure for `CC(C)(C)NC(=O)N1CCn2c(c(C(N)=O)c(-c3ccc(C4CCCCC4)cc3)c2C2CC2)C1` [Compound 14, N^2-tert-butyl-7-(4-cyclo-hexylphenyl)-6-cyclo-propyl-3,4-dihydropyrrolo[1,2-a]pyrazine-2,8(1H)-dicarboxamide]: 136 to 1090 nM; for `NC(=O)c1c(-c2cccc(F)c2)c(Cl)n2c1CN(C(=O)NC1CCS(=O)(=O)C1)CC2` (centres unmarked) [Compound 102, 6-chloro-N^2-(1,1-dioxydotetrahydrothiophen-3-yl)-7-(3-fluorophenyl)-3,4-dihydropyrrolo[1,2-a]pyrazine-2,8(1H)-dicarboxamide]: 4 to 11 nM.
The molecule `NC(=O)c1c(-c2cccc(F)c2)c(Cl)n2c1CN(C(=O)NC1CCC(O)(C(F)(F)F)CC1)CC2` (stereo not drawn) [Compound 85, trans-6-chloro-7-(3-fluorophenyl)-N^2-(4-hydroxy-4-trifluoromethyl-cyclo-hexyl)-3,4-dihydropyrrolo[1,2-a]pyrazine-2,8(1H)-dicarboxamide] came in with an IC50 of 2 nM.
On to `NC(=O)c1c(-c2cccc(F)c2)c(Cl)n2c1CN(C(=O)NCCCC(F)(F)F)CC2` [Compound 81, 6-chloro-7-(3-fluorophenyl)-N^2-(4,4,4-trifluorobutyl)-3,4-dihydropyrrolo[1,2-a]pyrazine-2,8(1H)-dicarboxamide], for which the IC50 was 2 to 16 nM.
The molecule `CC(C)(C)NC(=O)N1CCn2c(c(C(N)=O)c(-c3ccc(OCC4CC4)cc3)c2C2CC2)C1` [Compound 37, N^2-tert-butyl-6-cyclo-propyl-7-[4-(cyclo-propylmethoxy)phenyl]-3,4-dihydropyrrolo[1,2-a]pyrazine-2,8(1H)-dicarboxamide] had an IC50 of 62 nM.
The molecule `Cc1ccc(-c2c(C(N)=O)c3n(c2C2CC2)CCN(C(=O)NC(C)(C)C)C3)cc1` [Compound 12, N^2-tert-butyl-6-cyclo-propyl-7-(4-methylphenyl)-3,4-dihydropyrrolo[1,2-a]pyrazine-2,8(1H)-dicarboxamide] yielded a half-maximal inhibitory concentration (IC50) of 12 nM.
Consider `CC(C)(C)NC(=O)N1CCn2c(c(C(N)=O)c(-c3cccc(OC(F)(F)F)c3)c2C2CC2)C1` [Compound 35, N^2-tert-butyl-6-cyclo-propyl-7-[3-(trifluoromethoxy)phenyl]-3,4-dihydropyrrolo[1,2-a]pyrazine-2,8(1H)-dicarboxamide], for which the IC50 was found to be 25 nM.
Consider `COc1cccc(-c2c(C(N)=O)c3n(c2C2CC2)CCN(C(=O)NC(C)(C)C)C3)c1` [Compound 32, N^2-tert-butyl-6-cyclo-propyl-7-(3-methoxyphenyl)-3,4-dihydropyrrolo[1,2-a]pyrazine-2,8(1H)-dicarboxamide], for which the concentration for half-maximal inhibition (IC50) was in the range of 1 to 7 nM.
With `CC(C)(C)NC(=O)N1CCn2c(c(C(N)=O)c(-c3ccc(OCc4ccc(F)cc4)c(Cl)c3)c2C2CC2)C1` [Compound 42, N^2-tert-butyl-7-{3-chloro-4-[(4-fluorobenzyl)oxy]phenyl}-6-cyclo-propyl-3,4-dihydropyrrolo[1,2-a]pyrazine-2,8(1H)-dicarboxamide], the IC50 came to 16 nM. That is a double-digit nanomolar value.
Turning to `Cc1c(-c2ccc(Oc3ccccc3)cc2)c(C(N)=O)c2n1CCN(C(=O)NC(C)(C)C)C2` [Compound 5, N^2-tert-butyl-6-methyl-7-(4-phenoxyphenyl)-3,4-dihydropyrrolo[1,2-a]pyrazine-2,8(1H)-dicarboxamide], the IC50 fell in the range of 34 to 78 nM.
Molecule `NC(=O)c1c(-c2ccccc2)c(Cl)n2c1CN(C(=O)NC1CC3CCC1C3)CC2` (centres unmarked) [Compound 88, N^2-(bicyclo[2.2.1]hept-2-yl)-6-chloro-7-phenyl-3,4-dihydropyrrolo[1,2-a]pyrazine-2,8(1H)-dicarboxamide] yielded an IC50 of 3 to 5 nM.
Molecule `CON=C1CCC(NC(=O)N2CCn3c(Cl)c(-c4cccc(F)c4)c(C(N)=O)c3C2)CC1` (stereo not drawn) [Compound 86, trans-6-chloro-7-(3-fluorophenyl)-N^2-(4-methoxyimino-cyclohexyl)-3,4-dihydropyrrolo[1,2-a]pyrazine-2,8(1H)-dicarboxamide] gave a half-inhibitory concentration (IC50) below 1 nM.
As for `CC(C)(C)NC(=O)N1CCn2c(c(C(N)=O)c(-c3ccc(NS(C)(=O)=O)cc3)c2C2CC2)C1` [Compound 29, N^2-tert-butyl-6-cyclo-propyl-7-{4-[(methylsulfonyl)amino]phenyl}-3,4-dihydropyrrolo[1,2-a]pyrazine-2,8(1H)-dicarboxamide], the figure is 532 nM.
The same measure for `CC(C)(C)CC(C)(C)NC(=O)N1CCn2c(c(C(N)=O)c(-c3ccccc3)c2C2CC2)C1` [Compound 52, 6-cyclo-propyl-7-phenyl-N^2-(2,4,4-trimethylpentan-2-yl)-3,4-dihydropyrrolo[1,2-a]pyrazine-2,8(1H)-dicarboxamide]: 45 nM; for `CC(C)(C)CCNC(=O)N1CCn2c(Cl)c(-c3ccccc3)c(C(N)=O)c2C1` [Compound 72, 6-chloro-N^2-(3,3-dimethylbutyl)-7-phenyl-3,4-dihydropyrrolo[1,2-a]pyrazine-2,8(1H)-dicarboxamide]: 1 to 17 nM.
